Laboratory results: the NIST ThermoML archive (doi:10.1016/j.fluid.2011.12.029)

Settings: Liquid, Vibrating tube method

CCC[n+]1ccccc1Oc1ccc(Cl)c[n+]1CCOS(=O)(=O)[O-].F[B-](F)(F)F
Settings	mass density [kg/m3]
283.15 K, 100 kPa	1264.92
283.15 K, 5000 kPa	1266.85
283.15 K, 10000 kPa	1269.01
283.15 K, 15000 kPa	1270.98
283.15 K, 20000 kPa	1273.05
283.15 K, 25000 kPa	1274.97
283.15 K, 30000 kPa	1276.87
283.15 K, 35000 kPa	1278.73
283.15 K, 40000 kPa	1280.58
283.15 K, 45000 kPa	1282.38
283.15 K, 50000 kPa	1284.12
283.15 K, 55000 kPa	1285.76
283.15 K, 60000 kPa	1287.38
283.15 K, 65000 kPa	1289.03
288.15 K, 100 kPa	1260.92
288.15 K, 5000 kPa	1262.99
288.15 K, 10000 kPa	1265.09
288.15 K, 15000 kPa	1267.22
288.15 K, 20000 kPa	1269.26
288.15 K, 25000 kPa	1271.11
288.15 K, 30000 kPa	1273.09
288.15 K, 35000 kPa	1275.02
288.15 K, 40000 kPa	1276.87
288.15 K, 45000 kPa	1278.72
288.15 K, 50000 kPa	1280.38
288.15 K, 55000 kPa	1282.18
288.15 K, 60000 kPa	1283.78
288.15 K, 65000 kPa	1285.51
293.15 K, 100 kPa	1257.14
293.15 K, 5000 kPa	1259.28
293.15 K, 10000 kPa	1261.4
293.15 K, 15000 kPa	1263.43
293.15 K, 20000 kPa	1265.5
293.15 K, 25000 kPa	1267.47
293.15 K, 30000 kPa	1269.5
293.15 K, 35000 kPa	1271.32
293.15 K, 40000 kPa	1273.23
293.15 K, 45000 kPa	1275.01
293.15 K, 50000 kPa	1276.8
293.15 K, 55000 kPa	1278.62
293.15 K, 60000 kPa	1280.22
293.15 K, 65000 kPa	1281.96
298.15 K, 100 kPa	1253.37
298.15 K, 5000 kPa	1255.54
298.15 K, 10000 kPa	1257.73
298.15 K, 15000 kPa	1259.9
298.15 K, 20000 kPa	1262.01
298.15 K, 25000 kPa	1263.98
298.15 K, 30000 kPa	1265.98
298.15 K, 35000 kPa	1267.9
298.15 K, 40000 kPa	1269.81
298.15 K, 45000 kPa	1271.6
298.15 K, 50000 kPa	1273.47
298.15 K, 55000 kPa	1275.21
298.15 K, 60000 kPa	1276.93
298.15 K, 65000 kPa	1278.65
303.15 K, 100 kPa	1249.77
303.15 K, 5000 kPa	1252.02
303.15 K, 10000 kPa	1254.17
303.15 K, 15000 kPa	1256.38
303.15 K, 20000 kPa	1258.37
303.15 K, 25000 kPa	1260.46
303.15 K, 30000 kPa	1262.48
303.15 K, 35000 kPa	1264.47
303.15 K, 40000 kPa	1266.35
303.15 K, 45000 kPa	1268.13
303.15 K, 50000 kPa	1269.94
303.15 K, 55000 kPa	1271.81
303.15 K, 60000 kPa	1273.55
303.15 K, 65000 kPa	1275.21
308.15 K, 100 kPa	1246.14
308.15 K, 5000 kPa	1248.19
308.15 K, 10000 kPa	1250.57
308.15 K, 15000 kPa	1252.6
308.15 K, 20000 kPa	1254.8
308.15 K, 25000 kPa	1256.85
308.15 K, 30000 kPa	1258.87
308.15 K, 35000 kPa	1260.93
308.15 K, 40000 kPa	1262.88
308.15 K, 45000 kPa	1264.72
308.15 K, 50000 kPa	1266.61
308.15 K, 55000 kPa	1268.36
308.15 K, 60000 kPa	1270.11
308.15 K, 65000 kPa	1271.84
313.15 K, 100 kPa	1242.44
313.15 K, 5000 kPa	1244.75
313.15 K, 10000 kPa	1247.02
313.15 K, 15000 kPa	1249.22
313.15 K, 20000 kPa	1251.35
313.15 K, 25000 kPa	1253.46
313.15 K, 30000 kPa	1255.5
313.15 K, 35000 kPa	1257.51
313.15 K, 40000 kPa	1259.52
313.15 K, 45000 kPa	1261.48
313.15 K, 50000 kPa	1263.42
313.15 K, 55000 kPa	1265.2
313.15 K, 60000 kPa	1267
313.15 K, 65000 kPa	1268.66
318.15 K, 100 kPa	1238.82
318.15 K, 5000 kPa	1241.01
318.15 K, 10000 kPa	1243.39
318.15 K, 15000 kPa	1245.52
318.15 K, 20000 kPa	1247.69
318.15 K, 25000 kPa	1249.81
318.15 K, 30000 kPa	1251.93
318.15 K, 35000 kPa	1253.97
318.15 K, 40000 kPa	1255.96
318.15 K, 45000 kPa	1257.93
318.15 K, 50000 kPa	1259.75
318.15 K, 55000 kPa	1261.48
318.15 K, 60000 kPa	1263.53
318.15 K, 65000 kPa	1265.2
323.15 K, 100 kPa	1235.3
323.15 K, 5000 kPa	1237.63
323.15 K, 10000 kPa	1239.98
323.15 K, 15000 kPa	1242.24
323.15 K, 20000 kPa	1244.44
323.15 K, 25000 kPa	1246.62
323.15 K, 30000 kPa	1248.63
323.15 K, 35000 kPa	1250.7
323.15 K, 40000 kPa	1252.76
323.15 K, 45000 kPa	1254.69
323.15 K, 50000 kPa	1256.63
323.15 K, 55000 kPa	1258.52
323.15 K, 60000 kPa	1260.31
323.15 K, 65000 kPa	1262.15
328.15 K, 100 kPa	1231.68
328.15 K, 5000 kPa	1233.97
328.15 K, 10000 kPa	1236.25
328.15 K, 15000 kPa	1238.61
328.15 K, 20000 kPa	1240.87
328.15 K, 25000 kPa	1243.01
328.15 K, 30000 kPa	1245.19
328.15 K, 35000 kPa	1247.33
328.15 K, 40000 kPa	1249.3
328.15 K, 45000 kPa	1251.23
328.15 K, 50000 kPa	1253.26
328.15 K, 55000 kPa	1255.02
328.15 K, 60000 kPa	1256.98
328.15 K, 65000 kPa	1258.79
333.15 K, 100 kPa	1228.25
333.15 K, 5000 kPa	1230.56
333.15 K, 10000 kPa	1232.96
333.15 K, 15000 kPa	1235.23
333.15 K, 20000 kPa	1237.65
333.15 K, 25000 kPa	1239.91
333.15 K, 30000 kPa	1241.9
333.15 K, 35000 kPa	1244.07
333.15 K, 40000 kPa	1246.16
333.15 K, 45000 kPa	1248.15
333.15 K, 50000 kPa	1250.14
333.15 K, 55000 kPa	1252
333.15 K, 60000 kPa	1253.93
333.15 K, 65000 kPa	1255.7

CCCC[n+]1ccccc1.O=S(=O)([O-])C(F)(F)F [1-butylpyridinium trifluoromethanesulfonate]
mass density [kg/m3]
Settings	303.15 K	308.15 K	313.15 K	318.15 K	323.15 K	328.15 K	333.15 K
100 kPa	1311.77	1307.87	1303.91	1299.91	1296.31	1292.18	1288.27
5000 kPa	1314.63	1310.78	1306.89	1303.07	1298.89	1295.18	1291.41
10000 kPa	1317.44	1313.65	1309.74	1305.66	1302.15	1298.11	1294.46
15000 kPa	1320.2	1316.6	1312.65	1308.66	1304.98	1301.2	1297.41
20000 kPa	1322.82	1319.24	1315.17	1311.4	1307.88	1304.07	1300.4
25000 kPa	1325.53	1321.85	1317.99	1314.14	1310.7	1306.75	1303.31
30000 kPa	1328.06	1324.38	1320.63	1316.74	1313.34	1309.49	1306.06
35000 kPa	1330.48	1326.93	1323.08	1319.52	1315.79	1312.17	1308.77
40000 kPa	1332.93	1329.48	1325.67	1322.07	1318.44	1314.65	1311.33
45000 kPa	1335.28	1331.89	1328.04	1324.29	1321.03	1317.18	1313.93
50000 kPa	1337.67	1333.97	1330.42	1326.61	1323.34	1319.65	1316.36
55000 kPa	1339.98	1336.34	1332.73	1328.88	1325.68	1322	1318.77
60000 kPa	1342.03	1338.51	1334.95	1331.4	1328.01	1324.3	1320.81
65000 kPa	1344.13	1340.54	1337.08	1333.55	1330.03	1326.69	1323.38
